According to US20200390850A1, “PEPTIDES AND USES THEREOF” (LATERAL IP PTY LTD, priority 2018, published 2020):
Where two headings read alike, the source gives them in different places. Positions of bridges follow the written chain, without caps; N, C: chain ends. Residues, ends and D or L forms follow the SMILES beside them.

Assays:
[1] = in vivo
[2] = Ex vivo metabolism of LAT8881 in rat whole blood; format: in vitro ADME
Description: (§1) Human or rat blood was collected into K2EDTA tubes and approximately 2.94 mL of blood was transferred into a polypropylene tube and kept in a water bath at 37° C. […] At the indicated times, approximately 300 μL of the spiked blood sample was transferred into a vial containing 30 μL of OX Protease Inhibitor Cocktail (Sigma Aldrich; Product No. P2714), mixed well and centrifuged at 4° C. The plasma fraction was then collected, transferred into polypropylene tubes and stored at -80° C. […] […] NO:11)) and vortex-mixed with 200 μL of acetonitrile for 5 min at 1500 rpm. The resulting mixture was then centrifuged at 14000 rpm for 5 min and the supernatant was evaporated at 37° C. under a stream of nitrogen to dryness. The residue was reconstituted in 150 μL of reconstitution solution and approximately 150 μL of the reconstituted sample was transferred to a 96 well-plate for injection into the LC-MS system. […] The mobile phase was (a) 5% acetonitrile/water with 0.1% formic acid, and (b) 95% acetonitrile/water with 0.1% formic acid. Eluted peaks were analysed using mass spectrometry. For the analysis of LAT9998 (SEQ ID NO:11), a 5 μL aliquot of each plasma sample was injected into a Shimadzu Nexera UPLC system equipped with a Phenomenex Aeris Peptide XB-C18, 3.6 μm, 150×2.1 mm. The mobile phase was (a) 5% acetonitrile/water with 0.1% formic acid, and (b) 95% acetonitrile/water with 0.1% formic acid. Eluted peaks were analysed using mass spectrometry. Samples were analysed using an AB Sciex QTrap 5500 mass spectrometer with ESI in positive mode. MRM analyses were conducted with Ion Spray (IS) at 5500 V and the Curtain Gas (CUR) was set at 20. Multiple MRM transitions were monitored to ensure the chromatographic peaks observed are from the nominal compound. Results are reported as analyte peak area ratios (normalized versus internal standard peak area).

[3] = Ex vivo metabolism of LAT8881 in human whole blood; format: in vitro ADME
Description: as §1

[4] = system: rats with CFA-induced inflammation; experiment: Paw withdrawal threshold in CFA-induced inflammatory (nociceptive) pain; format: in vivo, rat; conditions: 3 mg/kg body weight; at 1 and 2 hours after administration
Description: Briefly, rats were anaesthetized with 3% isoflurane mixed with 97% oxygen. The left paw was injected with 0.05 ml CFA emulsion (F5881, Sigma-Aldrich) in saline (CFA:saline=1:1, vol./vol.). After CFA injection, the animals were returned to their home cages. Regular observations were be carried out to monitor the conditions of the animals after injection.

[5] = system: nerve cells in spinal cord slices; experiment: Spontaneous electrical activity in spinal cord slices from Chung model rats; format: cell-based, rat; conditions: 1 μM added to spinal cord slice
Description: Within 2 minutes of addition of 1 μM LATc9991F to the spinal cord slice, this electrical activity was suppressed; * indicates time that LATc9991F was added to the spinal cord slice preparation.
This study was undertaken to assess the effect of LATc9991F (SEQ ID NO:10) on spontaneous electrical activity on spinal cord slices from Chung model rats with confirmed neuropathic pain. LATc9991F is a non-human variant of LAT9991F that is derived from the feline, canine and equine variants of human growth hormone, as described in WO 2013/082667.
Briefly, spinal cord slices were prepared from Chung model rats with confirmed neuropathic pain symptoms, and spontaneous electrical activity was measured as in Example 1. […] Within 2 minutes of addition of LATc9991F to the slice, this electrical activity was suppressed by LATc9991F.

Chung rats = experiment: Paw withdrawal threshold in nerve constriction model of neuropathic pain (Chung model); format: in vivo, rat; conditions: for paw withdrawal threshold of ipsilateral paw: vs vehicle
Description: Briefly, adult male Sprague-Dawley rats, 8-9 weeks old, weighing 220-250 g at the time of surgery, were purchased from Charles River UK Ltd.
The animals were housed in groups of 4 in an air-conditioned room on a 12-hour light/dark cycle. Food and water were available ad libitum. They were allowed to acclimatise to the experimental environment for three days by leaving them on a raised metal mesh for at least 40 min. The baseline paw withdrawal threshold (PWT) was examined using a series of graduated von Frey hairs for 3 consecutive days before surgery and re-assessed on the 6th to 8th day after surgery and on the 12th to 14th day after surgery before drug dosing.
Each rat was anaesthetized with 5% isoflurane mixed with oxygen (2 L per min) followed by an intramuscular (i.m.) injection of ketamine 90 mg/kg plus xylazine 10 mg/kg. The back was shaved and sterilized with povidone-iodine. The animal was placed in a prone position and a para-medial incision was made on the skin covering the L4-6 level. The L5 spinal nerve was carefully isolated and tightly ligated with 6/0 silk suture. The wound was then closed in layers after a complete hemostasis. A single dose of antibiotics (Amoxipen, 15 mg/rat, i.p.) was routinely given for prevention of infection after surgery. The animals were placed in a temperature-controlled recovery chamber until fully awake before being returned to their home cages.
The vehicle (1% DMSO in PBS) and LAT8881 (AOD9604, GL449; provided by Lateral Pharma Pty Ltd) was administrated intramuscularly (i.m.) into the leg of the side contralateral to the site of injury. Dosing was carried out by a second experimenter. The rats with validated neuropathic pain state were randomly divided into 5 experimental groups: 1 ml/kg vehicle, 0.1, 0.5, 1 and 5 mg/kg LAT8881.
Each group had 8 animals. The animals were placed in individual Perspex boxes on a raised metal mesh for at least 40 minutes before the test. Starting from the filament of lowest force (about 1 g), each filament was applied perpendicularly to the centre of the ventral surface of the paw until slightly bent for 6 seconds. If the animal withdrew or lifted the paw upon stimulation, then a hair with force immediately lower than that tested was used. If no response was observed, then a hair with force immediately higher was tested. The lowest amount of force required to induce reliable responses (positive in 3 out of 5 trials) was recorded as the value of PWT.
The drug test was carried out on the 12th to 14th day after surgery. PWT were assessed before, 1, 2 and 4 hours following drug or vehicle administration. The animals were rested by being returned to their home cages (about 30-60 min) between two neighbouring testing time points. LAT8881 was administered by a single intramuscular injection (IM) in the ipsilateral limb at a dose of about 0.1 mg/kg body weight to about 5 mg/kg body weight.
LAT9991 was administered by a single intramuscular injection (IM) in the ipsilateral limb at a dose of about 0.1 mg/kg body weight to about 5 mg/kg body weight.
Gabapentin, as a positive control, obtained from Actavis, UK (Lot No. GJ29), was administered orally at 100 mg/2 ml/kg in normal saline. Dosing was carried out by a second experimenter.
Briefly, LAT9991F was administered orally at a dose of about 1 mg/kg body weight to about 5 mg/kg body weight.
Briefly, LAT9991 was administered orally at a dose of about 1 mg/kg body weight, 2 mg/kg body weight and 5 mg/kg body weight.

Lamina I or II neurones = experiment: Whole-cell patch clamp on spinal cord slices with intact dorsal root afferents: evoked post-synaptic currents; format: cell-based, rat; conditions: comparator; data not shown
Description: An in vitro spinal cord slice with intact dorsal root afferents combined with single-cell whole-cell patch clamp electrophysiological recording techniques was used to assess the electrophysiological properties of the peptide having the amino acid sequence of SEQ ID NO:2.
Spinal cord slices were prepared from chronic nerve constriction models of neuropathic pain (Chung models) and tested against the peptide of SEQ ID NO:2.
The spinal nerve ligation model (Chung model) was first reported by Kim and Chung (1992; Pain, 50(3):355-63) and involves a single tight ligation of the L5 spinal nerve. […] This model has been used as a “gold standard’ model for assessing the efficacy of novel compounds targeting neuropathic pain.
Adult male Sprague-Dawley rats, 8-9 weeks old, weighing 220-250 g at the time of surgery, were purchased from Charles River UK Ltd. The animals were housed in groups of 4 in an air-conditioned room on a 12-hour light/dark cycle. […] The baseline paw withdrawal threshold (PWT) was examined using a series of graduated von Frey hairs for 3 consecutive days before surgery and re-assessed on the 6th to 8th day after surgery and on the 12th to 14th day after surgery before drug dosing Each rat was anaesthetized with 5% isoflurane mixed with oxygen (2 L per min) followed by an intramuscular (i.m.) injection of ketamine 90 mg/kg plus xylazine 10 mg/kg. […]

CC[C@H](C)[C@H](NC(=O)[C@H](CCCNC(=N)N)NC(=O)[C@H](CC(C)C)NC(=O)[C@@H](N)Cc1ccc(O)cc1)C(=O)N[C@H](C(=O)N[C@@H](CCC(N)=O)C(=O)N[C@H]1CSSC[C@@H](C(=O)NCC(=O)N[C@@H](Cc2ccccc2)C(=O)O)NC(=O)[C@H](CO)NC(=O)CNC(=O)[C@H](CCC(=O)O)NC(=O)[C@H](C(C)C)NC(=O)[C@H](CO)NC(=O)[C@H](CCCNC(=N)N)NC1=O)C(C)C [LAT8881, YLRIVQCRSVEGSCGF] (H-YLRIVQCRSVEGSCGF-OH; disulfide 7-14; N-terminus and C-terminus assumed)
half-life [1]: < 1 min | half-life ([2]; rat blood, LAT8881-spiked, 37° C., read-out: ex vivo half-life): 3 to 6 min | half-life ([3]; human blood, LAT8881-spiked, 37° C., read-out: ex vivo half-life): 3 to 6 min

CC(C)[C@@H]1NC(=O)[C@H](CO)NC(=O)[C@H](CCCNC(=N)N)NC(=O)[C@@H](N)CSSC[C@@H](C(=O)NCC(=O)N[C@@H](Cc2ccccc2)C(=O)O)NC(=O)[C@H](CO)NC(=O)CNC(=O)[C@H](CCC(=O)O)NC1=O [LAT9991F, CRSVEGSCGF] (H-CRSVEGSCGF-OH; disulfide 1-8; N-terminus and C-terminus assumed)
half-life ([2]; rat, blood): > 60 min | half-life ([3]; human, blood): > 60 min

CN1CC[C@]23c4c5ccc(O)c4O[C@H]2[C@@H](O)C=C[C@H]3[C@H]1C5 [morphine]
analgesic effect on nociceptive pain (paw withdrawal threshold) [4]: significant analgesic effect

CRRFVESSCA (listed as Canis lupus) [LATc9991F, non-human variant of LAT9991F derived from the feline, canine and equine variants of human growth hormone]
spontaneous electrical activity in nerve cells [5]: suppressed | time after addition within which electrical activity was suppressed [5]: ≤ 2 min

CRSVEGSC (listed as Homo sapiens) [LAT9998, metabolite of LAT8881]
Detection of LAT9998 (peak area ratio) in all samples [2]: LAT9998 peaks were not detectable | Detection of LAT9998 (peak area ratio) in all samples [3]: LAT9998 peaks were not detectable

CRSVEGSCG (listed as Homo sapiens) [LAT9991]
analgesic effect compared with gabapentin at 100 mg/kg body weight orally (Chung rats; 5 mg/kg body weight PO): comparable | analgesic effect compared with gabapentin at 100 mg/kg body weight (Chung rats; 5 mg/kg body weight i.m.): comparable | effect on the contralateral paw responses (Chung rats; PO): No effect | time after administration within which effect on paw withdrawal threshold was observed (Chung rats; PO): ≤ 1 h | time for which effect on paw withdrawal threshold was maintained (Chung rats; PO): at least 4 hours | improvement in paw withdrawal threshold compared with LAT8881 (Chung rats; PO, vs Example 7): comparable | effect on the contralateral paw (Chung rats; i.m.): no effect | time after administration within which effect on paw withdrawal threshold was observed (Chung rats; i.m.): ≤ 1 h | time for which effect on paw withdrawal threshold was maintained (Chung rats; i.m.): at least 4 hours | improvement in paw withdrawal threshold compared with LAT8881 (Chung rats; i.m., vs Example 5): comparable | biological activity compared to the parent peptide LAT8881 (magnitude and duration of neuropathic analgesia) (Chung rats; nerve constriction model): equivalent or substantially equivalent | paw withdrawal threshold of ipsilateral paw (Chung rats; oral gavage 1, 2 and 5 mg/kg body weight): significant dose-dependent improvement | paw withdrawal threshold of ipsilateral paw (Chung rats; single i.m. injection, about 0.1 to 5 mg/kg body weight): significant dose-dependent improvement

human growth hormone: human growth hormone, comparator in the spinal cord slice recording
effect on post-synaptic current (Lamina I or II neurones): no effect
